Data on one compound can be found in US20220257597A1, “Methods of Administering Elagolix” (AbbVie Inc., priority 2021, published 2022).

One series deals with T1, OATP1B1 (Homo sapiens, UniProt Q9Y6L6).
T1 sequence (Q9Y6L6 1-691): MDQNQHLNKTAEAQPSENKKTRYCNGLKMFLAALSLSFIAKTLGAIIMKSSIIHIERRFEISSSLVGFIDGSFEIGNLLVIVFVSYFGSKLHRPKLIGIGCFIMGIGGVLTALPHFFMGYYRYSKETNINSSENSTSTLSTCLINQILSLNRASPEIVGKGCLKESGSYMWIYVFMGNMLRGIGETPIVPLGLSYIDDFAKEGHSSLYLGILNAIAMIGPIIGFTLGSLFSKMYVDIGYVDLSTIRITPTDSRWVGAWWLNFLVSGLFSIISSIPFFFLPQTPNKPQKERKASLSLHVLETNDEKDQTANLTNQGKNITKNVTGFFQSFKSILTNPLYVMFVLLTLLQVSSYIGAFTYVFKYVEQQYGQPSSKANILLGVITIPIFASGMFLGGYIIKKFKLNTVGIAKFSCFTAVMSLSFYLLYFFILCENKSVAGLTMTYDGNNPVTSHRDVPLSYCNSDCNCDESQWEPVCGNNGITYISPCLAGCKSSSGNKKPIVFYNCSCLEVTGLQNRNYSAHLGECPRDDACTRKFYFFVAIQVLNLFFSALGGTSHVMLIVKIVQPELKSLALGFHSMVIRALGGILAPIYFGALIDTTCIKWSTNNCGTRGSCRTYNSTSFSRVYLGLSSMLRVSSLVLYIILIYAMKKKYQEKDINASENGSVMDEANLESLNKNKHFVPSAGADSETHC
As to the kind of experiment: Substrate of OATP1B1. It counts as in vitro ADME.

The test system of a further series is CYP3A4. As to the kind of experiment: In vitro studies: CYP3A induction. It is filed as in vitro ADME.
In a further series the target is P-gp (Homo sapiens, UniProt P08183). As to the kind of experiment: Substrate of P-gp. It counts as in vitro ADME.
Chain of P-gp (P08183 whole entry): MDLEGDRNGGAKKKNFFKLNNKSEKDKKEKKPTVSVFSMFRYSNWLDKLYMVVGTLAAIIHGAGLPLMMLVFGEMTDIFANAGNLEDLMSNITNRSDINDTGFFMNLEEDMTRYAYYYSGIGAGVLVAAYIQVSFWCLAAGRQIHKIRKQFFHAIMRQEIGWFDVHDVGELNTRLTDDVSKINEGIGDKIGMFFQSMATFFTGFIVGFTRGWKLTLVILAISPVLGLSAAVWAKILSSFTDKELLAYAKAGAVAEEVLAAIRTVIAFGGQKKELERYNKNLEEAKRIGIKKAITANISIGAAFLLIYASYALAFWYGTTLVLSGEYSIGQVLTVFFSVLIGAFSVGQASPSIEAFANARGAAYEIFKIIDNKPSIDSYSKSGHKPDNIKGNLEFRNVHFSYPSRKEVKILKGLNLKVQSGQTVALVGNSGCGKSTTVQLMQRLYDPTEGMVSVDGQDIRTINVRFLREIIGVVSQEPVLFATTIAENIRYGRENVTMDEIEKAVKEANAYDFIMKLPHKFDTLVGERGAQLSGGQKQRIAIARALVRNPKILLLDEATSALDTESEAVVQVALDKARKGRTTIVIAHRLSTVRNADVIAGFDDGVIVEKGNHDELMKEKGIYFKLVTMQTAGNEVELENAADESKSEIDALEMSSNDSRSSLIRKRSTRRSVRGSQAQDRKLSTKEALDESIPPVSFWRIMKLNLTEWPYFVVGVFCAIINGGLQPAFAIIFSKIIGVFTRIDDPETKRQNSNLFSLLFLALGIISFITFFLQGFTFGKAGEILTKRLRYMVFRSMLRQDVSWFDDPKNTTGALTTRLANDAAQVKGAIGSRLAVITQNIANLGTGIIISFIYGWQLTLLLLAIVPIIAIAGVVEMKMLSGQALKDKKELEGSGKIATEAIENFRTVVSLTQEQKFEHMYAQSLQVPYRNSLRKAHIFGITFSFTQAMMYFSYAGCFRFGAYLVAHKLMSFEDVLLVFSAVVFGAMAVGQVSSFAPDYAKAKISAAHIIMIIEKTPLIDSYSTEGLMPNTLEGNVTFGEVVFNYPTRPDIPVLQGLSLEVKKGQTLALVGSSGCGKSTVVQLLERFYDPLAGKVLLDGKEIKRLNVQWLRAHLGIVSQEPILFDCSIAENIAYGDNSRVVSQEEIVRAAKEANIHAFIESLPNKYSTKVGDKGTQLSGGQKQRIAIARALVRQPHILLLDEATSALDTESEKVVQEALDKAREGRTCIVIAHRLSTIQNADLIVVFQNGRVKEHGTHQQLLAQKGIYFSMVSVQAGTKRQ
Series [1] can be described thus: Embryofetal development study in the rabbit.
Method: (§1) Embryofetal development studies were conducted in the rat and rabbit. Elagolix was administered by oral gavage to pregnant rats (25 animals/dose) at doses of 0, 300, 600 and 1200 mg/kg/day and to rabbits (20 animals/dose) at doses of 0, 100, 150, and 200 mg/kg/day, during the period of organogenesis (gestation day 6-17 in the rat and gestation day 7-20 in the rabbit).
Series [2] in a line: Elagolix apparent terminal phase elimination half-life. Conditions: human, in vivo; read-out: apparent terminal phase elimination half-life (t1/2).
For series [3], the target named is efflux transporter P-glycoprotein (P-gp) (Homo sapiens, UniProt P08183). As to the kind of experiment: P-glycoprotein inhibition. It is filed as in vitro ADME.
Chain of efflux transporter P-glycoprotein (P-gp) (P08183 whole entry): as above
Series [4] is described as follows: Drug-drug interaction study: effect of multiple doses of elagolix sodium on pharmacokinetics of bupropion (CYP2B6 substrate) and OH-bupropion. Here is the method: Subjects: Twenty four (24) adult premenopausal women in generally good health participated in this study.
Elagolix 300 mg BID (as 300 mg immediate release tablets) was administered in the morning and evening on days 1 through 14 in period 2. […] No food was consumed for 2 hours prior to the evening doses of elagolix continuing through 2 hours after. The doses of elagolix were separated by approximately 12 hours.
Individual PK parameters (peak concentration [Cmax] and area under the concentration-time curve [AUC]) were estimated using noncompartmental methods.
Central value ratios (90% confidence intervals) for Cmax, AUC, and metabolite to parent ratios (MPRs) (day 11, period 2 vs. day 1, period 1) were calculated to assess the DDIs. Safety was evaluated through assessment of adverse events, vital signs, electrocardiogram, and clinical laboratory tests.
Adverse events (AEs) were monitored throughout the DDI study. Additional safety evaluations included monitoring of physical examinations, vital signs, electrocardiogram variables, and clinical laboratory values were assessed

Series [5] can be described thus: Embryofetal development study in the rat. It is filed as in vivo.
Method: as §1
Series [6] is described as follows: Phase 1 open-label study: coadministration of combined oral contraceptive (EE+LNG) with elagolix sodium, pharmacokinetics, safety and tolerability. It is filed as in vivo, human. The note with it: healthy premenopausal female subjects. Here is the method:
Objective: To evaluate the effect of elagolix on the pharmacokinetics, safety, and tolerability of a single dose of a combined oral contraceptive (COC) containing EE and LNG in healthy premenopausal female subjects. […] [table] […] Diagnosis and Main Criteria for Inclusion: Subjects were premenopausal females, and age was between 18 and 49 years, inclusive. Test Product, Dose/Strength/Concentration, and Mode of Administration: […] EE/LNG 0.02 mg/0.1 mg tablet; All study drugs were administered orally. Duration of Treatment: […] EE/LNG: 0.02 mg/0.1 mg on two separate occasions. Criteria for Evaluation: Pharmacokinetic: Cmax, Tmax, t1/2 and AUC. Safety: Vital signs, physical examinations, laboratory tests, and adverse events. […] The tabulation of the number of subjects with treatment-emergent adverse events also was provided with further breakdowns by severity rating and relationship to study drug.

Series [7] has as its target T2, rat gonadotropin-releasing hormone (GnRH) receptor (Rattus norvegicus, UniProt P30969).
T2 sequence (P30969 1-327): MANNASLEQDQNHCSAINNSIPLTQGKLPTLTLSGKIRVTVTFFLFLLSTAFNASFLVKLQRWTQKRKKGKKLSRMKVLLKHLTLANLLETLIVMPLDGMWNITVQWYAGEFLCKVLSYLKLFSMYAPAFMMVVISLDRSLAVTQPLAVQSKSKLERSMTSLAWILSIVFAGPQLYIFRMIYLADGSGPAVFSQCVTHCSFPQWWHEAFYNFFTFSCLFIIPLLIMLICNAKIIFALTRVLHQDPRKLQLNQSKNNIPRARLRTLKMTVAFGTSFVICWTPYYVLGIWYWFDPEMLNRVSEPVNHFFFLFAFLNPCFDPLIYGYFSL
As to the kind of experiment: Binding to rat versus human GnRH receptor. Conditions: rat vs human GnRH receptor.

Series [8] is described as follows: Pre- and postnatal development study in rats. It counts as in vivo, rat. The note with it: for maternal plasma concentration relative to maximal elagolix concentration (Cmax) in humans at the MRHD: lactation day 21. The method, then: In a pre- and postnatal development study in rats, elagolix was given in the diet to achieve doses of 0, 100 and 300 mg/kg/day (25 per dose group) from gestation day 6 to lactation day 20. […] Pup survival was decreased from birth to postnatal day 4. […] Smaller body size and effect on startle response were associated with lower pup weights at 300 mg/kg/day. Post-weaning growth, development and behavioral endpoints were unaffected.

In another series the target is CYP2C19 (Homo sapiens, UniProt P33261). Description: In vitro studies: CYP2C19 inhibition. It is filed as in vitro ADME.
Chain of CYP2C19 (P33261 whole entry): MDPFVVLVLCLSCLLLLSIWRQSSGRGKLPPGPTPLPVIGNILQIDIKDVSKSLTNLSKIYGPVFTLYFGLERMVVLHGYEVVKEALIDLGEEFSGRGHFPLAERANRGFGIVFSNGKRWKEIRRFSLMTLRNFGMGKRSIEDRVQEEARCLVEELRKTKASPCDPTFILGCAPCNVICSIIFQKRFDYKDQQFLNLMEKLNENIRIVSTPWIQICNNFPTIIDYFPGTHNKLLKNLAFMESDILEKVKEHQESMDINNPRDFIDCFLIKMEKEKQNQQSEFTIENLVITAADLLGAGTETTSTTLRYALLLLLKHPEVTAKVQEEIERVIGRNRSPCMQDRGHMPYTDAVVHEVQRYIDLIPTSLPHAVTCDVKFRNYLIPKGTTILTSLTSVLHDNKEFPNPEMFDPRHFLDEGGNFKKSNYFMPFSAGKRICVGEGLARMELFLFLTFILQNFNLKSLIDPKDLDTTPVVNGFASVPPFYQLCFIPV
[9] abbreviates: pregnant rabbits, 150 mg/kg/day.

“Also recorded” adds a separate entry of the source.

Take `COc1cccc(-c2c(C)n(Cc3c(F)cccc3C(F)(F)F)c(=O)n(C[C@H](NCCCC(=O)O)c3ccccc3)c2=O)c1F` [elagolix, 4-((R)-2-[5-(2-fluoro-3-methoxy-phenyl)-3-(2-fluoro-6-trifluoromethyl-benzyl)-4-methyl-2,6-dioxo-3,6-dihydro-2H-pyrimidin-1-yl]-1-phenyl-ethylamino)-butyric acid]: the “substrate of OATP1B1” value at OATP1B1 was “substrate”. Moreover, the “inducer of CYP3A4 / cytochrome P450 (CYP) 3A” value in the series with CYP3A4 is listed as “weak to moderate inducer”. The “substrate of P-gp” value at P-gp is reported as “substrate”. Moreover, in series [1] (pregnant rabbits), the “highest, maternally toxic dose with spontaneous abortions and total litter loss, as multiple of the MRHD based on AUC” value is 7 times the MRHD. Further, in series [1] (setting [9]), the “findings at lower non-maternally toxic dose” value is reported as “A single total litter loss” and the “non-maternally toxic dose with total litter loss, as multiple of the MRHD” value was found to be 4 times the MRHD. For the same compound, the “findings at the highest, maternally toxic dose” value in [1] (pregnant rabbits, oral gavage, gestation day 7-20) is “three spontaneous abortions and a single total litter loss”. In addition, in series [1] (rabbit, any dose level tested), the “fetal malformations / structural abnormalities” value is listed as “no structural abnormalities; also recorded: No fetal malformations”. For the same compound, the half-life in [2] lay in the range of 4 to 6 h. For the same compound, in [3], the “inhibitor of efflux transporter P-glycoprotein (P-gp)” value was “inhibitor”. Besides, the “CYP2B6 induction in the healthy volunteer study” value in series [4] (elagolix 300 mg BID for 10 days) is reported as “did not induce CYP2B6”. In addition, in series [4] (healthy premenopausal female subjects), the “tolerability of co-administration of elagolix and bupropion” value is on record as “generally well tolerated”. Further, the “dose with increased post implantation losses, as multiple of the MRHD based on AUC” value in series [5] (pregnant rats, mid dose group) stood at 12 times the MRHD. The maternal deaths entry in series [5] (pregnant rats, oral gavage 300, 600 and 1200 mg/kg/day) is “six deaths”. In addition, the “fetal malformations / structural abnormalities” value in series [5] (rat, any dose level tested) is listed as “no structural abnormalities; also recorded: No fetal malformations”. The “tolerability of co-administration of elagolix and EE/LNG” value in series [6] is reported as “generally well tolerated”. Also, the “binding to the rat GnRH receptor, fold less than to the human GnRH receptor” value in series [7] was roughly 1000 fold. Moreover, the “post-weaning growth, development and behavioral endpoints” value in series [8] is “unaffected”. The “maternal plasma concentration relative to maximal elagolix concentration (Cmax) in humans at the MRHD” value in series [8] (100 mg/kg/day) came out at 0.04 fold. Moreover, in [8] (300 mg/kg/day), the “litter findings at the highest dose” value is “two dams had total litter loss, and one failed to deliver”; the “maternal plasma concentration relative to maximal elagolix concentration (Cmax) in humans at the MRHD” value is on record as 0.1 fold. Besides, the “pup birth weights and body weight gains” value in series [8] (300 mg/kg/day, pre-weaning period) is “lower birth weights and lower body weight gains”. Besides, the “pup survival from birth to postnatal day 4” value in series [8] (highest dose) is “decreased”. In addition, the “inhibitor of CYP2C19” value at CYP2C19 is reported as “weak inhibitor”.
